{"source": "patent US7560443B2", "about": "“Mixtures of fructose, sucrose and lactose as a low-calorie bulk sweetener with reduced glycemic index” (Vivalac, Inc. A Maryland Corp., priority 2002, dated 2009)", "key": {"[1]": {"tested_on": "plasma glucose", "test": "OTT, aqueous solutions (25 g in 100 g water), type 2 diabetic subject (DM2)", "type": "in vivo, human", "method": "Test articles were aqueous solutions (in 200 g water) of 50 g of total carbohydrates, which were prepared early in the morning before the test. All of the same protocol criteria were applied for the test, as described in Example 1 above, except that times for blood samples were 0, 30, 45, 60, 90, 120, and 180 minutes. The test subjects were Subject #1, described above, and Subject #2, a healthy person (BMI=27.7 kg/m^2). See FIGS. 3 and 2, respectively, for results of their OTT's.\nCalculation of estimated caloric value (ECV) demands some explanation here, as the calculation requires acceptance of some reasonable assumptions: • GI values for lactose monohydrate, fructose, sucrose and oat starch are 46, 23, 64, and 100, respectively. • Caloric values for lactose monohydrate, fructose, sucrose and oat starch are 3.8, 3.7, 3.9, and 3.7 kcal/g, respectively. • The order for complete active absorption of sugar mixtures from the small intestine to the bloodstream is fructose>starch (as maltose and α-dextrins)>sucrose>lactose. • Passive absorption of unhydrolyzed disaccharides is assumed to be zero for these calculations. • Disaccharides not actively absorbed pass to the colon, where they are fully degraded by microflora. • 78% of the disaccharides form short chain fatty acids (SCFA's), which are fully absorbed and used by the body with 50%×0.85=42.5% energy efficiency vs glucose (Livesey, Int J Food Sci Nutr, 44, 221-241, 1993). • 22% of the disaccharides are converted to biomass, which is calorically unavailable to the host (Weber et al, J Lab Clin Med, 110, 259-263, 1987). • NB—Starch (not part of the sweetener) which passes to the colon and is degraded microbially subtracts energy value from the sweetener, a component of which (lactose) caused it to pass to the colon.\nThe type 2 diabetic subject (DM2) was a person (BMI=32.8 kg/m^2), who was trying to control their diabetes without insulin or oral medications. Their daily drug regimen included Premarin®, Prempro®, Xenical®, and Lipitor®, all taken after OTT was completed each day. […]"}, "[2]": {"tested_on": "blood glucose", "settings": "diabetic volunteers after normal insulin or oral agents, vs glucose (GI=100); cited from earlier work"}, "[3]": {"target": "human lactase (Homo sapiens, UniProt P09848)", "sequence (P09848 869-1927)": "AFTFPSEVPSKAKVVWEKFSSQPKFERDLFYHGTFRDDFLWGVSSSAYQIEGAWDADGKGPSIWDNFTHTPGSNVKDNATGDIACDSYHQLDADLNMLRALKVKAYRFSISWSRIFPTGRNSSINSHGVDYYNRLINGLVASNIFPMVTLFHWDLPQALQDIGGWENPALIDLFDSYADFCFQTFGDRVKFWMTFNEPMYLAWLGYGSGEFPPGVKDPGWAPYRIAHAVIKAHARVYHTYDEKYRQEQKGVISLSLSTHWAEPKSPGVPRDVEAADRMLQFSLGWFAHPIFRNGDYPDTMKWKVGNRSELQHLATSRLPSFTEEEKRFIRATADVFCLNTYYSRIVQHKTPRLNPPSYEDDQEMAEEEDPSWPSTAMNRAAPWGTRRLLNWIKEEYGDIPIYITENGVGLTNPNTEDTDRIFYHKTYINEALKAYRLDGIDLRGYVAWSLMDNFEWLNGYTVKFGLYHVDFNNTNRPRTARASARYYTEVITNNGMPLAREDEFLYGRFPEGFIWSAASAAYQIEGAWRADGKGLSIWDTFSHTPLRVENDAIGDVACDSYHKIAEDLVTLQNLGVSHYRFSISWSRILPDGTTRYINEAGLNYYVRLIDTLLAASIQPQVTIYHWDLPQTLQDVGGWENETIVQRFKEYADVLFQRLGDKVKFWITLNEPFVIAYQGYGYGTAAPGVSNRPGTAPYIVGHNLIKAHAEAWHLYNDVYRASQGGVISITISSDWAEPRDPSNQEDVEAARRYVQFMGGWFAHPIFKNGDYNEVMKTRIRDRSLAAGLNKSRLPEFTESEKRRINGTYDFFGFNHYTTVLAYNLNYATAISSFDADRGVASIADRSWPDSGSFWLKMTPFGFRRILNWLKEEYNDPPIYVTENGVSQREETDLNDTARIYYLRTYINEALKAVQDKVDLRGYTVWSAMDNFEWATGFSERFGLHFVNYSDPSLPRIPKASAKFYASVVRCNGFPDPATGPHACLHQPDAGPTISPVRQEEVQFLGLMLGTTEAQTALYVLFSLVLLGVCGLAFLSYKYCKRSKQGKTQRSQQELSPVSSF", "settings": "in vitro; cited from earlier work"}, "[4]": {"tested_on": "plasma glucose", "settings": "untreated diabetics, Gannon et al; cited from earlier work"}, "[5]": {"tested_on": "plasma glucose", "settings": "glucose = 100, cited from earlier work"}, "[6]": {"tested_on": "plasma glucose", "test": "OTT, aqueous sugar solutions (50 g in 200 g water), Subject #1", "type": "in vivo, human", "settings": "Subject #1, N=3", "method": "The test subject (Subject #1) was a person in good health, with a body mass index (BMI) equal to 28.6 kg/m^2. The subject was required to exercise moderately at least 30 minutes each day before testing, sleep at least 7 hours the previous night, and fast for no less than 12 hours prior to oral tolerance testing (OTT) early the next morning. Water was restricted 1.5 hours prior to testing, and only small sips of water were allowed infrequently during OTT. The test article, described below, was ingested as quickly as possible after the time 0 blood sample was obtained. Subsequent blood samples were taken at 30, 60, 90, 120, 150, and 180 minutes, and plasma glucose measurements were recorded in units of mg/dL immediately each time using a hand-held glucometer (At•Last model, Amira Medical, Scotts Valley, Calif. 95066). The subject abstained from food and remained sedentary during the 3-hour test. Clinical observations were noted and recorded continuously.\nTest articles were aqueous solutions (in 200 g water) of 50 g of total carbohydrates, which were prepared early in the morning before the test. All of the same protocol criteria were applied for the test, as described in Example 1 above, except that times for blood samples were 0, 30, 45, 60, 90, 120, and 180 minutes. The test subjects were Subject #1, described above, and Subject #2, a healthy person (BMI=27.7 kg/m^2). […]"}, "[7]": {"tested_on": "maltase", "settings": "in vitro; cited from earlier work"}, "[8]": {"target": "human sucrase (Homo sapiens, UniProt P14410)", "sequence (P14410 whole entry)": "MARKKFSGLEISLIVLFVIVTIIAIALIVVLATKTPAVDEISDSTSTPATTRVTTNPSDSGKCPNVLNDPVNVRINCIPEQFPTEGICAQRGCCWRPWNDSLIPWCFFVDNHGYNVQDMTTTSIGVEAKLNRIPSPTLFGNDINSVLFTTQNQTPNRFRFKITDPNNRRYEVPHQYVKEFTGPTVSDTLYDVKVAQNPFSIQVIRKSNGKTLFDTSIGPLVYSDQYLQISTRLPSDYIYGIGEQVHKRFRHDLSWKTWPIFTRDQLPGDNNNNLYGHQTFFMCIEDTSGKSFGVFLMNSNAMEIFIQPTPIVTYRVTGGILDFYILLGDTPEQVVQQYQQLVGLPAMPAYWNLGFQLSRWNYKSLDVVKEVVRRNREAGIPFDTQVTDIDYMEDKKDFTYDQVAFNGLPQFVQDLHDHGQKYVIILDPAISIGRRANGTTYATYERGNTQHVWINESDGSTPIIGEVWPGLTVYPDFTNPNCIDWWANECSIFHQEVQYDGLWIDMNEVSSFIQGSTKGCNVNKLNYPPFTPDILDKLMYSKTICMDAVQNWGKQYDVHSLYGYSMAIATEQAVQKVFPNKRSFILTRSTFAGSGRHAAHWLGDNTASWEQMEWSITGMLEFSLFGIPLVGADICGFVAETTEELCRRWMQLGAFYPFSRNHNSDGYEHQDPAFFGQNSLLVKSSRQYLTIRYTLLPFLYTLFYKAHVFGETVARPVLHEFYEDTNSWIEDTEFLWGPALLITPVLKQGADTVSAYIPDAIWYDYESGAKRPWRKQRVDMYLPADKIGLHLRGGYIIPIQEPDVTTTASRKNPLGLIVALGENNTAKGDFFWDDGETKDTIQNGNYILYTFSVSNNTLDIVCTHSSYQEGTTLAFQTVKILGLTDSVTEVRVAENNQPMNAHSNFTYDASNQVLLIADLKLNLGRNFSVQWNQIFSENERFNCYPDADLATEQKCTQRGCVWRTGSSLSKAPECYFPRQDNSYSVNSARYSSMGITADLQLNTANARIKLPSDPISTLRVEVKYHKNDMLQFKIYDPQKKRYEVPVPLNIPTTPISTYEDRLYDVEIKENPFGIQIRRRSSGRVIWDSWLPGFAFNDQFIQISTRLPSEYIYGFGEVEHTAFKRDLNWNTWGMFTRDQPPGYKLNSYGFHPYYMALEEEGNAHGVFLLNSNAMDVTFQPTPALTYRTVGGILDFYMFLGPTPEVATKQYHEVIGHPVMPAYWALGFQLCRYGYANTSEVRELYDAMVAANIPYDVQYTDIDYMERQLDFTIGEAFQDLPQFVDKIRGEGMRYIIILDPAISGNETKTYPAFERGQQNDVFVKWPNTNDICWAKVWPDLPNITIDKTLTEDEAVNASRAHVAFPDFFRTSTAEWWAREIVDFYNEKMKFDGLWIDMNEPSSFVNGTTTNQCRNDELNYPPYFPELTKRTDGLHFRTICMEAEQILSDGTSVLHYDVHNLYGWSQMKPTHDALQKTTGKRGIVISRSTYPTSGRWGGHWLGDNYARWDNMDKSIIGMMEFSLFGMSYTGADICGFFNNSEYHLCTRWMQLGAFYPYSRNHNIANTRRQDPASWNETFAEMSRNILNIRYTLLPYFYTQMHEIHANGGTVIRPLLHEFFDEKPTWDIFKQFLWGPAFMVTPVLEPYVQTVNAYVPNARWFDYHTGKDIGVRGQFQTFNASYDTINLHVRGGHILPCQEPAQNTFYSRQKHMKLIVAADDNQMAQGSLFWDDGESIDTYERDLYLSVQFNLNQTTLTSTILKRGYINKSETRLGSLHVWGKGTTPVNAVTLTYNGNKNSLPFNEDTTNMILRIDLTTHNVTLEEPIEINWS", "settings": "in vitro; cited from earlier work"}, "[9]": {"tested_on": "human small intestine", "settings": "cited from earlier work"}, "[10]": {"tested_on": "rabbit maltase", "settings": "in vitro; cited from earlier work"}, "[11]": {"target": "rabbit sucrase (Oryctolagus cuniculus, UniProt P07768)", "sequence (P07768 whole entry)": "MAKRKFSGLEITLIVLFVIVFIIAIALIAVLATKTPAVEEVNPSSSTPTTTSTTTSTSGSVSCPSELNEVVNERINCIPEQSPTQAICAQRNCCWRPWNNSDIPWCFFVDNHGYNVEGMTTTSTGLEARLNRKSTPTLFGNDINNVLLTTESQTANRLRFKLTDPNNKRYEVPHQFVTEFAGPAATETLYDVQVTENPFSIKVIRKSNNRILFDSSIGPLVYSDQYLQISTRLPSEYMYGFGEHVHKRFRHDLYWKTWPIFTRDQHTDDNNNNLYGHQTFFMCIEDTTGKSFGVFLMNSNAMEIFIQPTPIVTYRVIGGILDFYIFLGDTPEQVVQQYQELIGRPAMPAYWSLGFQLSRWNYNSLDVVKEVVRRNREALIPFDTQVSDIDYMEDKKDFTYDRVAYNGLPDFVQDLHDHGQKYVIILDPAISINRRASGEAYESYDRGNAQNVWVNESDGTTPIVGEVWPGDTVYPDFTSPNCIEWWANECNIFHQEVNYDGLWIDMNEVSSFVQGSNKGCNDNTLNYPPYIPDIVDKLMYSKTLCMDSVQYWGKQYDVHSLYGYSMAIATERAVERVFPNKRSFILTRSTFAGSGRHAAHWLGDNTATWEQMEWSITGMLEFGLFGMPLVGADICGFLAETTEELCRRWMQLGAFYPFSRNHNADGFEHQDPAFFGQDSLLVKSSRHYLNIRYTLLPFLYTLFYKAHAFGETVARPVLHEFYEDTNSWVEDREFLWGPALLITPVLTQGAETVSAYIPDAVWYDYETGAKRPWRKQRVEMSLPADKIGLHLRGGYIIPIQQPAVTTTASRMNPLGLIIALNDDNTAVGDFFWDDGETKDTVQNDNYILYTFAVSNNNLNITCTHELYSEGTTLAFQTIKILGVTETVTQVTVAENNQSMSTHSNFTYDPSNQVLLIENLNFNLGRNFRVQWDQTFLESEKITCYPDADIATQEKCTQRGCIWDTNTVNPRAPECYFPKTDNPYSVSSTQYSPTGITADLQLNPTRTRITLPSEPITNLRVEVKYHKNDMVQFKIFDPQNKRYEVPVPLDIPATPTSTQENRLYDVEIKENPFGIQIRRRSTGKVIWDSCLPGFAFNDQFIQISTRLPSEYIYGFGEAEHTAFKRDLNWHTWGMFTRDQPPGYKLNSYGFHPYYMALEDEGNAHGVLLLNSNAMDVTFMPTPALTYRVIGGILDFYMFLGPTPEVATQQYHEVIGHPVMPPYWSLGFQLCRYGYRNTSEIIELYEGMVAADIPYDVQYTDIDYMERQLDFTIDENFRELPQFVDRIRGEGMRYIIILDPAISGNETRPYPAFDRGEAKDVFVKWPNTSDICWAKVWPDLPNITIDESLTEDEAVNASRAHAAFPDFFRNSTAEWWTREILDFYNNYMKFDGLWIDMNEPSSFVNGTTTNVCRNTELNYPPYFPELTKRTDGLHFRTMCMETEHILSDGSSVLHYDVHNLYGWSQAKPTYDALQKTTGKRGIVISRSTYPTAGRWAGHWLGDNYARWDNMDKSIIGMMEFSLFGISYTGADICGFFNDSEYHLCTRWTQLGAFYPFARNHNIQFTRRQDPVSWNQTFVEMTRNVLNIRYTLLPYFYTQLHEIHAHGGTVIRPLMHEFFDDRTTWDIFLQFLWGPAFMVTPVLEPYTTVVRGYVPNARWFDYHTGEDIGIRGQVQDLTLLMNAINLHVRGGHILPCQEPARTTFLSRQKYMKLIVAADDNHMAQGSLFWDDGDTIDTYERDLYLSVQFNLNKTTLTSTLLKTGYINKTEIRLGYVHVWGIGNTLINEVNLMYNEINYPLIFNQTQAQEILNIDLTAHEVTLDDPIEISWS", "settings": "in vitro; cited from earlier work"}, "[12]": {"tested_on": "rats", "settings": "cited from earlier work; for body fat lowering vs controls: pair-fed rats"}, "[13]": {"tested_on": "rats", "settings": "cited from earlier work"}, "[14]": {"settings": "pair-feeding, lactose 30% of diet (Février 1969)"}, "[15]": {"settings": "weanling male rats, 12% lactose, six weeks (Ali and Evans 1971)"}}, "note": "Where two headings read alike, the source gives them in different places.", "data": [{"smiles": "OC[C@H]1O[C@@](CO)(O[C@H]2O[C@H](CO)[C@@H](O)[C@H](O)[C@H]2O)[C@@H](O)[C@@H]1O", "note": "[sucrose]", "values": [{"measurement": "plasma glucose level relative to 200 mg/dL", "setting": "[1]", "result": "broke above 200 mg/dL"}, {"measurement": "time of plasma glucose peak", "setting": "[1]", "result": 45, "unit": "min"}, {"measurement": "AUC", "setting": "[1]; 25 g in 100 g water, N=2", "result": 6184, "unit": "mg·min/dL"}, {"measurement": "glycemic index (GI)", "setting": "[2]", "result": 63}, {"measurement": "inhibition of lactose hydrolysis by human lactase", "setting": "[3]", "result": "no inhibiting effect"}, {"measurement": "GI values", "setting": "[4]", "result": 43}, {"measurement": "glycemic index (GI)", "setting": "[5]", "result": 64}, {"measurement": "glycemic index (GI)", "setting": "[5]; listed as SU", "result": 64}, {"measurement": "AUC", "setting": "[6]", "result": 2935, "unit": "mg·min/dL"}]}, {"smiles": "OC[C@H]1O[C@H](O[C@H]2[C@H](O)[C@@H](O)[C@H](O)O[C@@H]2CO)[C@H](O)[C@@H](O)[C@@H]1O", "note": "[maltose]", "values": [{"measurement": "inhibition of lactose hydrolysis by human lactase", "setting": "[3]", "result": "no inhibiting effect"}]}, {"smiles": "O=C[C@H](O)[C@@H](O)[C@@H](O)[C@H](O)CO", "note": "[galactose]", "values": [{"measurement": "inhibition of maltose hydrolysis by maltase", "setting": "[7]", "result": "no inhibiting effect"}, {"measurement": "inhibition of sucrose hydrolysis by human sucrase", "setting": "[8]", "result": "no inhibition"}, {"measurement": "absorption rate relative to fructose", "setting": "[9]", "result": "~1.2", "unit": "times as fast as fructose"}, {"measurement": "inhibition of lactose hydrolysis by human lactase", "setting": "[3]", "result": "competitively inhibit"}, {"measurement": "inhibition of rabbit maltase", "setting": "[10]", "result": "no inhibition"}, {"measurement": "inhibition of rabbit sucrase", "setting": "[11]", "result": "no inhibition"}]}, {"smiles": "OC[C@H]1O[C@@H](O[C@H]2[C@H](O)[C@@H](O)C(O)O[C@@H]2CO)[C@H](O)[C@@H](O)[C@H]1O", "note": "(some centres unmarked) [lactose]", "values": [{"measurement": "reduction of fat content", "setting": "[12]; ad libitum feeding, lactose 30% of diet (Février 1969)", "result": 20, "unit": "%"}, {"measurement": "reduction of growth rate", "setting": "[12]; ad libitum feeding, lactose 30% of diet vs starch control (Février 1969)", "result": 37, "unit": "%"}, {"measurement": "reduction of fat content", "setting": "[12]; equalized-growth-feeding, lactose 30% of diet (Février 1969)", "result": 12, "unit": "%"}, {"measurement": "body fat lowering vs controls", "setting": "[12]; lactose 30% of diet (Whittier et al 1935)", "result": 38, "unit": "%"}, {"measurement": "body fat lowering vs controls", "setting": "[12]; lactose 50% of diet (Baker et al 1967)", "result": 48, "unit": "%"}, {"measurement": "body fat lowering vs controls", "setting": "[12]; lactose 52% of diet (Tomarelli et al 1960)", "result": 40, "unit": "%"}, {"measurement": "reduction of fat content", "setting": "[12]; [14]", "result": 32, "unit": "%"}, {"measurement": "reduction of growth rate", "setting": "[12]; [14]", "result": 23, "unit": "%"}, {"measurement": "body fat reduction", "setting": "[12]; [15]", "result": 30, "unit": "%"}, {"measurement": "body moisture increase", "setting": "[12]; [15]", "result": 11, "unit": "%"}, {"measurement": "glycemic index (GI)", "setting": "[2]", "result": 48}, {"measurement": "GI values", "setting": "[4]", "result": 32}, {"measurement": "glycemic index (GI)", "setting": "[5]", "result": 46}, {"measurement": "relative availability compared to glucose", "setting": "[13]; bioassay based on plasma ketones", "result": 0.59}, {"measurement": "relative availability compared to glucose", "setting": "[13]; bioassay based on weight gain", "result": 0.57}, {"measurement": "metabolizable energy value", "setting": "[13]", "result": 2.1, "unit": "kcal/g"}]}, {"smiles": "O=C(CO)[C@@H](O)[C@H](O)[C@H](O)CO", "note": "[fructose]", "values": [{"measurement": "inhibition of maltose hydrolysis by maltase", "setting": "[7]", "result": "no inhibiting effect"}, {"measurement": "inhibition of sucrose hydrolysis by human sucrase", "setting": "[8]", "result": "inhibit"}, {"measurement": "glycemic index (GI)", "setting": "[2]", "result": 24}, {"measurement": "inhibition of lactose hydrolysis by human lactase", "setting": "[3]", "result": "competitively inhibit"}, {"measurement": "GI values", "setting": "[4]", "result": 6}, {"measurement": "glycemic index (GI)", "setting": "[5]", "result": 23}]}]}
